Where a SMILES comes first, the peptide text is derived from it. Bridges are numbered along the chain shown (N, C = ends). [ ]: non-standard residue; d: D form. The star is where a group is joined. ξ: configuration not given here. Phe(4-CH2CH2COOH) = N[C@@H](Cc1ccc(CCC(=O)O)cc1)C(=O)O; Phe(3-CF3) = N[C@@H](Cc1cccc(C(F)(F)F)c1)C(=O)O; Phe(4-COOH) = N[C@@H](Cc1ccc(C(=O)O)cc1)C(=O)O; Bip = N[C@@H](Cc1ccc(-c2ccccc2)cc1)C(=O)O; Phe(3-Me) = Cc1cccc(C[C@H](N)C(=O)O)c1; Val(3-OH) = CC(C)(O)[C@H](N)C(=O)O; 4Pal = N[C@@H](Cc1ccncc1)C(=O)O; Cha = N[C@@H](CC1CCCCC1)C(=O)O; Cit = NC(=O)NCCC[C@H](N)C(=O)O; dCha = N[C@H](CC1CCCCC1)C(=O)O; Thr(3ξ) = CC(O)[C@H](N)C(=O)O; Phg = N[C@H](C(=O)O)c1ccccc1; Carboxymethyl = O=C(O)C*; Orn = NCCC[C@H](N)C(=O)O; Dab = NCC[C@H](N)C(=O)O; Dap = NC[C@H](N)C(=O)O; NH(CH2)3NH2 = NCCCN*; X9 = c1cn(CCCN*)cn1
Each molecule was assayed against T1, human PD-1 / PD-L1-Ig binding on Jurkat cell line over-expressing human PD-1 (Jurkat-PD-1) (Homo sapiens, UniProt Q15116) (assay: Jurkat-PD-1 Cell Binding High-Content Screening Assay (CBA)). Conditions: Jurkat-PD-1 cells, PE-labeled PD-L1-Ig 20 nM final; read-out: Jurkat HPD1_PDL1 IC50.
T1 construct: expressed in transfected cells; host or cells: Jurkat
Format: cell-based
Outline: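 Jurkat cells over-expressing human PD-1, in DMEM/10% FCS, pre-incubated with compound 2 h at 37° C. PE-labeled human PD-L1-Ig (20 nM final) added for 1 h; cells fixed in paraformaldehyde with Hoechst 33342 nuclear stain, washed, and bound fluorescence quantified by high-content imaging.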

T1 sequence (Q15116 25-288): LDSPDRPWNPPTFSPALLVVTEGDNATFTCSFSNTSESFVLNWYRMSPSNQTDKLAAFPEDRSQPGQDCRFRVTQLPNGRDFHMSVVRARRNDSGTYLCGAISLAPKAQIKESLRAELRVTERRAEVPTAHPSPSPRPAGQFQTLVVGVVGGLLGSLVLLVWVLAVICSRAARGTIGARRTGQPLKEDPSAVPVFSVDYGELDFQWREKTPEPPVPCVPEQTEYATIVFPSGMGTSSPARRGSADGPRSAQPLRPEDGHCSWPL

Row | IC50 [nM] | SMILES
1 | 68.8 | CC(C)C[C@@H]1NC(=O)[C@H](Cc2c[nH]c3ccccc23)NC(=O)[C@H](CC(=O)O)NC(=O)[C@H](Cc2ccc(O)cc2)NC(=O)[C@H](Cc2ccccc2)NC(=O)CSC[C@@H](C(=O)NCC(N)=O)NC(=O)[C@H](CO)NC(=O)[C@H](C(C)C)NC(=O)[C@H](CC(C)C)NC(=O)[C@H](CCN)NC(=O)[C@@H](C)NC(=O)[C@H](CCCN)NC(=O)[C@H](C(C)C)NC(=O)[C@H](Cc2ccc(-c3ccccc3)cc2)NC1=O [Compound 1096] ({CH2CO}-FYDWL[Bip]V[Orn][dA][Dab]LVSCG-NH2; thioether N-14)
2 | 31.6 | CC(C)C[C@@H]1NC(=O)[C@H](CCN)NC(=O)[C@@H](CC(C)C)NC(=O)[C@H](CCN)NC(=O)[C@H](CCCNC(N)=O)NC(=O)[C@H](Cc2ccc(-c3ccccc3)cc2)NC(=O)[C@H](C(C)C)NC(=O)[C@H](Cc2c[nH]c3ccccc23)NC(=O)[C@H](CC(=O)O)NC(=O)[C@H](Cc2ccc(O)cc2)NC(=O)[C@H](CC(N)=O)NC(=O)CSC[C@@H](C(=O)NCC(N)=O)NC(=O)[C@H](CO)NC(=O)[C@H](C(C)C)NC1=O [Compound 1114] ({CH2CO}-NYDWV[Bip][Cit][Dab][dL][Dab]LVSCG-NH2; thioether N-14)
3 | 4.5 | Cc1cccc(C[C@@H]2NC(=O)[C@H](CC(=O)O)NC(=O)[C@H](Cc3ccc(OCC(=O)O)cc3)NC(=O)[C@H](CN)NC(=O)CSC[C@@H](C(=O)NCC(N)=O)NC(=O)[C@H](CO)NC(=O)[C@H](C(C)C)NC(=O)[C@H](CC(C)C)NC(=O)[C@H](CCN)NC(=O)[C@@H](CC(C)C)NC(=O)[C@H](CCCN)NC(=O)[C@H](C(C)C)NC(=O)[C@H](Cc3ccc(-c4ccccc4)cc3)NC(=O)[C@H](CC(C)C)NC2=O)c1 [Compound 1264] ({CH2CO}-[Dap]Y(Carboxymethyl)D[Phe(3-Me)]L[Bip]V[Orn][dL][Dab]LVSCG-NH2; thioether N-14)
4 | 15.6 | CC(C)[C@@H]1NC(=O)[C@H](Cc2c[nH]c3ccccc23)NC(=O)[C@H](CC(=O)O)NC(=O)[C@H](Cc2ccc(C(=O)O)cc2)NC(=O)[C@H](Cc2ccncc2)NC(=O)CSC[C@@H](C(=O)N[C@@H](C)C(N)=O)NC(=O)[C@H]([C@@H](C)O)NC(=O)[C@H](C(C)C)NC(=O)[C@H](CC2CCCCC2)NC(=O)[C@H](CCN)NC(=O)[C@@H](CC2CCCCC2)NC(=O)[C@H](CCCN)NC(=O)[C@H](C(C)C)NC(=O)[C@H](Cc2ccc(-c3ccccc3)cc2)NC1=O [Compound 1632] ({CH2CO}-[4Pal][Phe(4-COOH)]DWV[Bip]V[Orn][dCha][Dab][Cha]VTCA-NH2; thioether N-14)
5 | 119 | CC(C)C[C@@H]1NC(=O)[C@H](CCN)NC(=O)[C@@H](CC(C)C)NC(=O)[C@H](CCCN)NC(=O)[C@H](CCCNC(N)=O)NC(=O)[C@H](Cc2ccc(-c3ccccc3)cc2)NC(=O)[C@H](C(C)C)NC(=O)[C@H](Cc2c[nH]c3ccccc23)NC(=O)[C@H](CC(=O)O)NC(=O)[C@H](Cc2ccncc2)NC(=O)[C@H](CN)NC(=O)CSC[C@@H](C(=O)N[C@@H](C)C(N)=O)NC(=O)[C@H]([C@@H](C)O)NC(=O)[C@H](C(C)C)NC1=O [Compound 1240] ({CH2CO}-[Dap][4Pal]DWV[Bip][Cit][Orn][dL][Dab]LVTCA-NH2; thioether N-14)
6 | 6.7 | CC(C)C[C@@H]1NC(=O)[C@H](Cc2c[nH]c3ccccc23)NC(=O)[C@H](CC(=O)O)NC(=O)[C@H](Cc2ccc(CCC(=O)O)cc2)NC(=O)[C@H](Cc2ccc(OCC(=O)O)cc2)NC(=O)CSC[C@@H](C(=O)NCC(N)=O)NC(=O)[C@H](CO)NC(=O)[C@H](C(C)C)NC(=O)[C@H](CC(C)C)NC(=O)[C@H](CCN)NC(=O)[C@@H](CC(C)C)NC(=O)[C@H](CCCN)NC(=O)[C@H](C(C)C)NC(=O)[C@H](Cc2ccc(-c3ccccc3)cc2)NC1=O [Compound 1256] ({CH2CO}-Y(Carboxymethyl)[Phe(4-CH2CH2COOH)]DWL[Bip]V[Orn][dL][Dab]LVSCG-NH2; thioether N-14)
7 | 5.1 | Cc1cccc(C[C@@H]2NC(=O)[C@H](CC(=O)O)NC(=O)[C@H](Cc3ccc(C(=O)O)cc3)NC(=O)[C@H](CN)NC(=O)CSC[C@@H](C(=O)N[C@@H](C)C(=O)NCCCn3ccnc3)NC(=O)[C@H]([C@@H](C)O)NC(=O)[C@H](C(C)C)NC(=O)[C@H](CC(C)C)NC(=O)[C@H](CCN)NC(=O)[C@@H](CC(C)C)NC(=O)[C@H](CCCN)NC(=O)[C@H](C(C)C)NC(=O)[C@H](Cc3ccc(-c4ccccc4)cc3)NC(=O)[C@H](C(C)C)NC2=O)c1 [Compound 2005] ({CH2CO}-[Dap][Phe(4-COOH)]D[Phe(3-Me)]V[Bip]V[Orn][dL][Dab]LVTCA-X9; thioether N-14)
8 | 24 | CC(C)C[C@H]1NC(=O)[C@H](CCCN)NC(=O)[C@H](CCC(=O)O)NC(=O)[C@H](Cc2ccc(-c3ccccc3)cc2)NC(=O)[C@H](c2ccccc2)NC(=O)[C@H](Cc2c[nH]c3ccccc23)NC(=O)[C@H](CC(=O)O)NC(=O)[C@H](Cc2ccc(OCC(=O)O)cc2)NC(=O)[C@H](CN)NC(=O)CSC[C@@H](C(=O)N[C@@H](C)C(N)=O)NC(=O)[C@H]([C@@H](C)O)NC(=O)[C@H](C(C)C)NC(=O)[C@H](CC2CCCCC2)NC(=O)[C@H](CCN)NC1=O [Compound 1720] ({CH2CO}-[Dap]Y(Carboxymethyl)DW[Phg][Bip]E[Orn][dL][Dab][Cha]VTCA-NH2; thioether N-14)

Second part, the molecule before the results:

Row | SMILES | IC50 [nM]
9 | CC(C)C[C@H]1NC(=O)[C@H](CCCN)NC(=O)[C@H](CCC(=O)O)NC(=O)[C@H](Cc2ccc(-c3ccccc3)cc2)NC(=O)[C@H](C(C)C)NC(=O)[C@H](Cc2cccc(C(F)(F)F)c2)NC(=O)[C@H](CC(=O)O)NC(=O)[C@H](Cc2ccncc2)NC(=O)[C@H](Cc2ccc(OCC(=O)O)cc2)NC(=O)CSC[C@@H](C(=O)N[C@@H](C)C(N)=O)NC(=O)[C@H]([C@@H](C)O)NC(=O)[C@H](C(C)C)NC(=O)[C@H](CC2CCCCC2)NC(=O)[C@H](CCN)NC1=O [Compound 1462] ({CH2CO}-Y(Carboxymethyl)[4Pal]D[Phe(3-CF3)]V[Bip]E[Orn][dL][Dab][Cha]VTCA-NH2; thioether N-14) | 16.8
10 | CC(C)C[C@H]1NC(=O)[C@H](CCCN)NC(=O)[C@H](Cc2cnc[nH]2)NC(=O)[C@H](Cc2ccc(-c3ccccc3)cc2)NC(=O)[C@H](C(C)C)NC(=O)[C@H](Cc2c[nH]c3ccccc23)NC(=O)[C@H](CC(=O)O)NC(=O)[C@H](Cc2ccc(OCC(=O)O)cc2)NC(=O)[C@H](Cc2ccccc2)NC(=O)CSC[C@@H](C(=O)N[C@@H](CC(N)=O)C(N)=O)NC(=O)[C@H](CO)NC(=O)[C@H](C(C)C)NC(=O)[C@H](CC2CCCCC2)NC(=O)[C@H](CCN)NC1=O [Compound 2560] ({CH2CO}-FY(Carboxymethyl)DWV[Bip]H[Orn][dL][Dab][Cha]VSCN-NH2; thioether N-14) | 9.4
11 | Cc1cccc(C[C@@H]2NC(=O)[C@H](CC(=O)O)NC(=O)[C@H](Cc3ccc(OCC(=O)O)cc3)NC(=O)[C@H](Cc3ccncc3)NC(=O)CSC[C@@H](C(=O)N[C@@H](CCN)C(N)=O)NC(=O)[C@H](CO)NC(=O)[C@H](C(C)(C)O)NC(=O)[C@H](CC3CCCCC3)NC(=O)[C@H](CCN)NC(=O)[C@@H](CC(C)C)NC(=O)[C@H](CCC(N)=O)NC(=O)[C@H](Cc3ccc(C(=O)O)cc3)NC(=O)[C@H](Cc3ccc(-c4ccccc4)cc3)NC(=O)[C@H](Cc3ccc(C(=O)O)cc3)NC2=O)c1 [Compound 2643] ({CH2CO}-[4Pal]Y(Carboxymethyl)D[Phe(3-Me)][Phe(4-COOH)][Bip][Phe(4-COOH)]Q[dL][Dab][Cha][Val(3-OH)]SC[Dab]-NH2; thioether N-14) | 7.3
12 | Cc1cccc(C[C@@H]2NC(=O)[C@H](CC(=O)O)NC(=O)[C@H](Cc3ccc(C(=O)O)cc3)NC(=O)[C@H](Cc3ccc(OCC(=O)O)cc3)NC(=O)CSC[C@@H](C(=O)N[C@H](CCC(=O)O)C(=O)O)NC(=O)[C@H](CCCN)NC(=O)[C@H](C(C)C)NC(=O)[C@H](CC3CCCCC3)NC(=O)[C@H](CCN)NC(=O)[C@@H](CC(C)C)NC(=O)[C@H](CCN)NC(=O)[C@H](C(C)C)NC(=O)[C@H](Cc3ccc(-c4ccccc4)cc3)NC(=O)[C@H](C(C)C)NC2=O)c1 [Compound 2590] ({CH2CO}-Y(Carboxymethyl)[Phe(4-COOH)]D[Phe(3-Me)]V[Bip]V[Dab][dL][Dab][Cha]V[Orn]C[dE]-OH; thioether N-14) | 30.2
13 | Cc1cccc(C[C@@H]2NC(=O)[C@H](CC(=O)O)NC(=O)[C@H](Cc3ccc(OCC(=O)O)cc3)NC(=O)[C@H](Cc3ccncc3)NC(=O)CSC[C@@H](C(=O)N[C@@H](CCN)C(N)=O)NC(=O)[C@H](CO)NC(=O)[C@H](C(C)(C)O)NC(=O)[C@H](CC3CCCCC3)NC(=O)[C@H](CCN)NC(=O)[C@@H](CC(C)C)NC(=O)[C@H](CCC(N)=O)NC(=O)[C@H](Cc3ccc(OCC(=O)O)cc3)NC(=O)[C@H](Cc3ccc(-c4ccccc4)cc3)NC(=O)[C@H](Cc3ccc(OCC(=O)O)cc3)NC2=O)c1 [Compound 2642] ({CH2CO}-[4Pal]Y(Carboxymethyl)D[Phe(3-Me)]Y(Carboxymethyl)[Bip]Y(Carboxymethyl)Q[dL][Dab][Cha][Val(3-OH)]SC[Dab]-NH2; thioether N-14) | 3.5
14 | Cc1cccc(C[C@@H]2NC(=O)[C@H](CC(=O)O)NC(=O)[C@H](Cc3ccc(OCC(=O)O)cc3)NC(=O)[C@H](CCN)NC(=O)CSC[C@@H](C(=O)N[C@@H](CO)C(=O)NCCCN)NC(=O)[C@H](C(C)O)NC(=O)[C@H](C(C)(C)O)NC(=O)[C@H](CC3CCCCC3)NC(=O)[C@H](Cc3cnc[nH]3)NC(=O)[C@@H](CC(C)C)NC(=O)[C@H](CCCN)NC(=O)[C@H](Cc3ccc(OCC(=O)O)cc3)NC(=O)[C@H](Cc3ccc(-c4ccccc4)cc3)NC(=O)[C@H](Cc3ccc(OCC(=O)O)cc3)NC2=O)c1 (stereo partly drawn) [Compound 2648] ({CH2CO}-[Dab]Y(Carboxymethyl)D[Phe(3-Me)]Y(Carboxymethyl)[Bip]Y(Carboxymethyl)[Orn][dL]H[Cha][Val(3-OH)][Thr(3ξ)]CS-{NH(CH2)3NH2}; thioether N-14) | 98

— US20250163104A1, “MACROCYCLIC IMMUNOMODULATORS” (priority 2021, published 2025)
